For one molecule, IC50 results are on record in patent US20230242887A1, “ONCOLYTIC VIRUS CARRYING E-CADHERIN AND USES THEREOF” (Ohio State Innovation Foundation, priority 2017, published 2023).

Molecules are shown by their SMILES.

Assay [1] concerns OV-CDH1. As to the kind of experiment: Viral replication inhibition assay (HSV-1 genome copies by real-time PCR). It is filed as cell-based. The settings on record: Human alphaherpesvirus 1; Gli36 cells, MOI of 5, 48 h. On the procedure: (§1) FIGS. 12A-12B illustrate the safety test for OV-CDH1. FIG. 12(A) illustrates that Gli36 cells were infected with OV-Q1 or OV-CDH1 at a MOI of 5. Two hours after infection, the infection media were replaced with fresh media with increasing concentrations of Acyclovir. Forty-eight hours after infection, the cells were harvested for DNA extraction. The HSV-1 genome copy numbers in OV-Q1 and OV-CDH1 infected cells were measured by real-time PCR with primers and a probe against gD. The copy number vs. dose curves were established to evaluate the inhibitory effect of Acyclovir against oHSV replication (n=3). FIG. 12(B) illustrates survival curves of BLAB/c mice treated with wild-type HSV-1 (F strain), OV-Q1 or OV-CDH1 at the dose of 1×10^6 via i.c. or i.v injections.
(§2) OV-Q1 and OV-CDH1 both carry the HSV-1 TK gene, which makes the viruses sensitive to the antiviral acyclovir and its derivatives. […] For evaluating the in vivo safety of OV-CDH1, BALB/c mice were intravenously (i.v.) or i.c. injected with wild-type HSV-1 (F strain), OV-Q1, or OV-CDH1 at the dose of 1×10^6 PFU, which is the maximum dose due to the limited administration volume for i.c. injection. […] Mice treated with OV-Q1 and OV-CDH1 through i.v. or i.c. injections all survived over 4 weeks until they were euthanized and not monitored further (FIG. 12B). […]

Assay [2] relates to OV-Q1. The assay is described as above. Format: cell-based. The settings on record: Human alphaherpesvirus 1, GLI36, 48 h, read-out: IC50 of inhibition of OV-Q1 replication. Here is the method:
as §1, §2

As for `Nc1nc2c(ncn2COCCO)c(=O)[nH]1` [acyclovir], the half-inhibitory concentration (IC50) (commonly the concentration needed to halve the response being measured) in assay [1] was found to be 2670 nM; in assay [2], 1670 nM.
